Measured values taken from ChEMBL document CHEMBL4334471, “Discovery of 1,8-disubstituted-[1,2,3]triazolo[4,5-c]quinoline derivatives as a new class of Hippo signaling pathway inhibitors” (Bioorg Med Chem Lett, 2019).

What was measured:
[1] = tested on: Tyrosine-protein kinase ABL1 (Homo sapiens), P00519 [T315I]; assay: Inhibition of human ABL1 T315I mutant (27 to end residues) assessed as residual activity at 10 uM using EAIYAAPFAKKK as substrate incubated for 40 mins in presence of [gamma-33ATP] by scintillation counting based radiometry assay relative to control
[2] = target: Cyclin-dependent kinase 5/CDK5 activator 1 (Homo sapiens) (UniProt Q00535+Q15078); assay: Inhibition of recombinant full length human CDK5/p25 assessed as residual activity at 10 uM using histone H1 as substrate incubated for 40 mins in presence of [gamma-33ATP] by scintillation counting based radiometry assay relative to control; format: protein-complex assay
[3] = target: Cyclin-dependent kinase-like 1 (Homo sapiens) (UniProt Q00532); assay: Inhibition of recombinant full length human CDKL1 assessed as residual activity at 10 uM using RRRFRPASPLRGP as substrate incubated for 120 mins in presence of [gamma-33ATP] by scintillation counting based radiometry assay relative to control
[4] = target: Death-associated protein kinase 2 (Homo sapiens) (UniProt Q9UIK4); assay: Inhibition of recombinant full length human DAPK2 assessed as residual activity at 10 uM Calmodulin as substrate incubated 40 mins in presence of [gamma-33ATP] by scintillation counting based radiometry assay relative to control
[5] = target: Serine/threonine-protein kinase 17B (Homo sapiens) (UniProt O94768); assay: Inhibition of recombinant human DRAK2 assessed as residual activity at 10 uM using KKRPQRRYSNVF as substrate at 120 mins in presence of [gamma-33ATP] by scintillation counting based radiometry assay relative to control
[6] = tested on: Fibroblast growth factor receptor 1 (Homo sapiens), P11362 [V561M]; assay: Inhibition of recombinant human FGFR1 V561M mutant (456 to 765 residues) assessed as residual activity at 10 uM using KKKSPGEYVNIEF as substrate at 40 mins in presence of [gamma-33ATP] by scintillation counting based radiometry assay relative to control
[7] = target: Tyrosine-protein kinase Fyn (Homo sapiens) (UniProt P06241); assay: Inhibition of recombinant full length human Fyn assessed as residual activity at 10 uM using KVEKIGEGTYGVV as substrate at 40 mins in presence of [gamma-33ATP] by scintillation counting based radiometry assay relative to control
[8] = organism: Homo sapiens; assay: Inhibition of human MAPK2 assessed as residual activity at 10 uM relative to control
[9] = target: Hepatocyte growth factor receptor (Homo sapiens) (UniProt P08581); assay: Inhibition of recombinant human MET A1209G/V1290L mutant (974 to end residues) assessed as residual activity at 10 uM using KKKGQEEEYVFIE as substrate incubated for 40 mins in presence of [gamma-33ATP by scintillation counting based radiometry assay relative to control
[10] = tested on: Platelet-derived growth factor receptor alpha (Homo sapiens), P16234 [D842V]; assay: Inhibition of human PDGFRalpha D842V mutant (550 to end residues) assessed as residual activity at 10 uM using poly(Glu, Tyr) 4:1 as substrate measured after 40 mins in presence of [gamma33P]ATP by scintillation counting based radiometry assay relative to control
[11] = target: Platelet-derived growth factor receptor beta (Homo sapiens) (UniProt P09619); assay: Inhibition of human PDGFRbeta (557 to end residues) assessed as residual activity at 10 uM using poly(Glu, Tyr) 4:1 as substrate measured after 40 mins in presence of [gamma33P]ATP by scintillation counting based radiometry assay relative to control
[12] = target: [Pyruvate dehydrogenase (acetyl-transferring)] kinase isozyme 4, mitochondrial (Homo sapiens) (UniProt Q16654); assay: Inhibition of recombinant human full length PDHK4 assessed as residual activity at 10 uM using KKKYHGHSMSDPGVSYRT as substrate incubated for 40 mins in presence of [gamma33P]ATP by scintillation counting based radiometry assay relative to control
[13] = tested on: Ribosomal protein S6 kinase alpha-1 (Rattus norvegicus), Q63531 [S637N,G697A]; assay: Inhibition of recombinant full length rat Rsk1 S637N/G697A mutant assessed as residual activity at 10 uM using KKKNRTLSVA as substrate incubated for 40 mins in presence of [gamma33P]ATP by scintillation counting based radiometry assay relative to control
[14] = target: Ribosomal protein S6 kinase alpha-3 (Homo sapiens) (UniProt P51812); assay: Inhibition of recombinant human Rsk2 (2 to end residues) assessed as residual activity at 10 uM using KKKNRTLSVA as substrate incubated for 40 mins in presence of [gamma33P]ATP by scintillation counting based radiometry assay relative to control
[15] = target: Serine/threonine-protein kinase 25 (Homo sapiens) (UniProt O00506); assay: Inhibition of recombinant human STK25 (1 to 308 residues) assessed as residual activity at 10 uM using RLGRDKYKTLRQIRQ as substrate incubated for 40 mins in presence of [gamma33P]ATP by scintillation counting based radiometry assay relative to control
[16] = target: Mitogen-activated protein kinase kinase kinase 7 (Homo sapiens) (UniProt O43318); assay: Inhibition of recombinant human TAK1 (1 to 303 residues) assessed as residual activity at 10 uM using casein as substrate incubated for 40 mins in presence of [gamma33P]ATP by scintillation counting based radiometry assay relative to control
[17] = target: Serine/threonine-protein kinase TAO1 (Homo sapiens) (UniProt Q7L7X3); assay: Inhibition of recombinant human TAO1 (1 to 327 residues) assessed as residual activity at 10 uM using myelin basic protein as substrate incubated for 40 mins in presence of [gamma33P]ATP by scintillation counting based radiometry assay relative to control
[18] = target: Wee1-like protein kinase 2 (Homo sapiens) (UniProt P0C1S8); assay: Inhibition of recombinant full length human WEE1b assessed as residual activity at 10 uM using LSNLYHQGKFLQTFCGSPLYRRR as substrate incubated for 40 mins in presence of [gamma33P]ATP by scintillation counting based radiometry assay relative to control
[19] = tested on: PI3-kinase p110-alpha/p85-alpha (Homo sapiens), P27986+P42336 [E542K]; assay: Inhibition of recombinant full-length human PI3K p110/p85 E542K mutant assessed as residual activity at 10 uM using phosphatidylinositol-4, 5-bisphosphate as substrate incubated for 40 mins in presence of [gamma33P]ATP by scintillation counting based radiometry assay relative to control

Sequence of Ribosomal protein S6 kinase alpha-1 (Rattus norvegicus), Q63531 [S637N,G697A] (Q63531 whole entry S637N/G697A): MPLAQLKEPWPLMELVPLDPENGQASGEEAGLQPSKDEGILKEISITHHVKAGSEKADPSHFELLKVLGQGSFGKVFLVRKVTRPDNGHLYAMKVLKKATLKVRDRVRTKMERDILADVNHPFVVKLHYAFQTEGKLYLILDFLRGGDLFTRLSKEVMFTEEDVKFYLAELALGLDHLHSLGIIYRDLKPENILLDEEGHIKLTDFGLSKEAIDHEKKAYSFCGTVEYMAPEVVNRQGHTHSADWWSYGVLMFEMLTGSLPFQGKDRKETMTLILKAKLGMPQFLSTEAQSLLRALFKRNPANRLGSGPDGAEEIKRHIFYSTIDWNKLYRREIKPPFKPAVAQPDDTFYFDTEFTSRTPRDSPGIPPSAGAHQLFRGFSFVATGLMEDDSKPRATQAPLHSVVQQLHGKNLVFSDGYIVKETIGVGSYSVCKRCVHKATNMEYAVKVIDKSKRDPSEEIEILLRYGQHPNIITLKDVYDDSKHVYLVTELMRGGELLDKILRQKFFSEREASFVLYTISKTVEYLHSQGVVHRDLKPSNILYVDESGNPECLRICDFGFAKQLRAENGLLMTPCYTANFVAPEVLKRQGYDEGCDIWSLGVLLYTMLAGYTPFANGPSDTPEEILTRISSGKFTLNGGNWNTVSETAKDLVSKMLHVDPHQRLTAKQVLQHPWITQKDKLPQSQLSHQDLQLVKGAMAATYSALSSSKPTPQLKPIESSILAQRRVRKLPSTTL
Sequence of Serine/threonine-protein kinase 25 (Homo sapiens) (O00506 whole entry, looked up, the tested form may be a part): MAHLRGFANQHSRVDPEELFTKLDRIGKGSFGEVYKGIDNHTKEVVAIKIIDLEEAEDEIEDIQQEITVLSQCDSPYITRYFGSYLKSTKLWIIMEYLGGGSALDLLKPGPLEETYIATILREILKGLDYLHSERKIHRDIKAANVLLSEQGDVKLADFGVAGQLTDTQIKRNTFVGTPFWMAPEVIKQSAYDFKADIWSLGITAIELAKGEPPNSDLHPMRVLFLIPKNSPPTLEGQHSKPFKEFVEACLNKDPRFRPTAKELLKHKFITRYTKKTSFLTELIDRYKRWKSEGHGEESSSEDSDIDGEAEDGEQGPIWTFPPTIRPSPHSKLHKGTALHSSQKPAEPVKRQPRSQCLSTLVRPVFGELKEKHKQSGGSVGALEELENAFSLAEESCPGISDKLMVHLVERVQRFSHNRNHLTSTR
Sequence of [Pyruvate dehydrogenase (acetyl-transferring)] kinase isozyme 4, mitochondrial (Homo sapiens) (Q16654 whole entry, looked up): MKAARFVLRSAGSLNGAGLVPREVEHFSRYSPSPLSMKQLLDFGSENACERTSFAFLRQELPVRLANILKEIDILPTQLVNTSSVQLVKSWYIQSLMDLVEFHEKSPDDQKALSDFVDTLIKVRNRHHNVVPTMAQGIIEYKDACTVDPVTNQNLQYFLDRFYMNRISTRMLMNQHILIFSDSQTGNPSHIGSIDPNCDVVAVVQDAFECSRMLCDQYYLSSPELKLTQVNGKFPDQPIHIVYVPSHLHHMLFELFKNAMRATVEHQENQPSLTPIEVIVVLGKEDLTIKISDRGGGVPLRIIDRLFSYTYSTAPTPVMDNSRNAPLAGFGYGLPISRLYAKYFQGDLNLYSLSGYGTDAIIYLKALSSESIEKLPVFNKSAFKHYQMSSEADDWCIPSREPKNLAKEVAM
Sequence of Platelet-derived growth factor receptor beta (Homo sapiens) (P09619 whole entry): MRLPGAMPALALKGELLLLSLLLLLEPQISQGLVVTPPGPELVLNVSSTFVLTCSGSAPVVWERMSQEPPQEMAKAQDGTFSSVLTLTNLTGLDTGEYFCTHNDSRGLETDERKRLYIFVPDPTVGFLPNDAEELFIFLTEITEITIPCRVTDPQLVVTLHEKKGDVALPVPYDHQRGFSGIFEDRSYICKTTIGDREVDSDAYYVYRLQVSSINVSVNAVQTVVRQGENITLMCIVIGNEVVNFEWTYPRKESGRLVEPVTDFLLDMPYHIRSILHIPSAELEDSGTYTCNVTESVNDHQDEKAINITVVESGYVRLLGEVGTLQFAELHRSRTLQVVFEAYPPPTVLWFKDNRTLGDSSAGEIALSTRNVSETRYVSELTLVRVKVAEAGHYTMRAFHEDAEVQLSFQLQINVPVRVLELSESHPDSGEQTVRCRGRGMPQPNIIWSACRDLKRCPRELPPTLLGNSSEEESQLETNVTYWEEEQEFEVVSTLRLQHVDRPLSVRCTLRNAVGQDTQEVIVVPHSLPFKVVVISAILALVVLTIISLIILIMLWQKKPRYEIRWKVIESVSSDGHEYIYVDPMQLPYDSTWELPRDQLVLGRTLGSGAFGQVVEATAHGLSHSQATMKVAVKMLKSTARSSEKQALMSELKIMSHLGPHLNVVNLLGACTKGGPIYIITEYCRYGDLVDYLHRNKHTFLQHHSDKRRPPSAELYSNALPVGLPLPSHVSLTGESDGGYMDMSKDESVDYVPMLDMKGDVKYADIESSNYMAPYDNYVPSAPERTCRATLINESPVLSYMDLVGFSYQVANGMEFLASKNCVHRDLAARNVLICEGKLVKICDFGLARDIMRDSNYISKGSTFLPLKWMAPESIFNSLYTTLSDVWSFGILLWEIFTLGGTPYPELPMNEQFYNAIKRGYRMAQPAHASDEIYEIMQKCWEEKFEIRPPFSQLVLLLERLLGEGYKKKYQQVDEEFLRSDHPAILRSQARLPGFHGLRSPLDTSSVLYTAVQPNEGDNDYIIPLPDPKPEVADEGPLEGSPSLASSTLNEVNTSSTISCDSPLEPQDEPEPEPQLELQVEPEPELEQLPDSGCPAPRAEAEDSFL
Sequence of Tyrosine-protein kinase Fyn (Homo sapiens) (P06241 2-537 limits assumed): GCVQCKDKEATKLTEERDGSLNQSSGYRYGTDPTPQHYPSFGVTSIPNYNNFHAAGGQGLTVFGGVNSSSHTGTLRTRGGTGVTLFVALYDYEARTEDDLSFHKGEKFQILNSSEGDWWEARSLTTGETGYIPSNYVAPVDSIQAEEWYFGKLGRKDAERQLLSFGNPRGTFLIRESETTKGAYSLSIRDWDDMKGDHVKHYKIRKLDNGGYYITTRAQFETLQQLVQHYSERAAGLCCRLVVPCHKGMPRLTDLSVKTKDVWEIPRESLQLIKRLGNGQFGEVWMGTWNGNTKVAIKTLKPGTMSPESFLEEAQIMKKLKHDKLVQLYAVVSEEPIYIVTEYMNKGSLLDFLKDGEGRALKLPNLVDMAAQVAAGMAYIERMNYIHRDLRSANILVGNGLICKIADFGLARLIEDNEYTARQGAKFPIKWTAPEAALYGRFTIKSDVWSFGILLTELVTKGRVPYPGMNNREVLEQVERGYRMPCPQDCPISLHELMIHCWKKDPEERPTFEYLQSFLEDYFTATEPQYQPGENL
Sequence of Serine/threonine-protein kinase TAO1 (Homo sapiens) (Q7L7X3 whole entry, the tested form may be a part): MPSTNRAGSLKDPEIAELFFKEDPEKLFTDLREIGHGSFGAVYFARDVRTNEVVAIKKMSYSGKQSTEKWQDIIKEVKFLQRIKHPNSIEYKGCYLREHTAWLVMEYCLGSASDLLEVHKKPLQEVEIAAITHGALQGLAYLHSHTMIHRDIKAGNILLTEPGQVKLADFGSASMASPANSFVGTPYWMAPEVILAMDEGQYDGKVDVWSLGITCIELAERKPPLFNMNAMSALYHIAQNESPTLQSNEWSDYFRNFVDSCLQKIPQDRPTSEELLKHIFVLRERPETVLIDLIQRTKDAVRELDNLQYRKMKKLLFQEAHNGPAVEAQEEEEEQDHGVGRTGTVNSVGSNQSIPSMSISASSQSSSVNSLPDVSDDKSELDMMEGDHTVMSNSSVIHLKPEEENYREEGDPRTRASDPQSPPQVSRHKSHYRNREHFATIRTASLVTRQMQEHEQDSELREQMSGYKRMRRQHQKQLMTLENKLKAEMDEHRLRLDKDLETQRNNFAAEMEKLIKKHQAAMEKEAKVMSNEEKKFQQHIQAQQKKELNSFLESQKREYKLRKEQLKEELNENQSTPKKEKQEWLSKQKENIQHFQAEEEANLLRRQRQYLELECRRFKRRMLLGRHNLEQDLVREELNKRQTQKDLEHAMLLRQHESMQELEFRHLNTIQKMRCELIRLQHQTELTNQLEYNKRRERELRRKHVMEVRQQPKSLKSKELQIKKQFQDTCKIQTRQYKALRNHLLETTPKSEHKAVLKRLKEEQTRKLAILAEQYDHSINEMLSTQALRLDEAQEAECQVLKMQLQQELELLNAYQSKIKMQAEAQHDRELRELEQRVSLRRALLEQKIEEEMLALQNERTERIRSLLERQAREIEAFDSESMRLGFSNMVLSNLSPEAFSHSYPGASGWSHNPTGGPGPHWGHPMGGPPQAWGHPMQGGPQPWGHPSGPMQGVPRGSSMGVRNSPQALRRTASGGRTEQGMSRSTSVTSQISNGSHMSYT
Sequence of Fibroblast growth factor receptor 1 (Homo sapiens), P11362 [V561M] (P11362 whole entry V561M, the tested form may be a part): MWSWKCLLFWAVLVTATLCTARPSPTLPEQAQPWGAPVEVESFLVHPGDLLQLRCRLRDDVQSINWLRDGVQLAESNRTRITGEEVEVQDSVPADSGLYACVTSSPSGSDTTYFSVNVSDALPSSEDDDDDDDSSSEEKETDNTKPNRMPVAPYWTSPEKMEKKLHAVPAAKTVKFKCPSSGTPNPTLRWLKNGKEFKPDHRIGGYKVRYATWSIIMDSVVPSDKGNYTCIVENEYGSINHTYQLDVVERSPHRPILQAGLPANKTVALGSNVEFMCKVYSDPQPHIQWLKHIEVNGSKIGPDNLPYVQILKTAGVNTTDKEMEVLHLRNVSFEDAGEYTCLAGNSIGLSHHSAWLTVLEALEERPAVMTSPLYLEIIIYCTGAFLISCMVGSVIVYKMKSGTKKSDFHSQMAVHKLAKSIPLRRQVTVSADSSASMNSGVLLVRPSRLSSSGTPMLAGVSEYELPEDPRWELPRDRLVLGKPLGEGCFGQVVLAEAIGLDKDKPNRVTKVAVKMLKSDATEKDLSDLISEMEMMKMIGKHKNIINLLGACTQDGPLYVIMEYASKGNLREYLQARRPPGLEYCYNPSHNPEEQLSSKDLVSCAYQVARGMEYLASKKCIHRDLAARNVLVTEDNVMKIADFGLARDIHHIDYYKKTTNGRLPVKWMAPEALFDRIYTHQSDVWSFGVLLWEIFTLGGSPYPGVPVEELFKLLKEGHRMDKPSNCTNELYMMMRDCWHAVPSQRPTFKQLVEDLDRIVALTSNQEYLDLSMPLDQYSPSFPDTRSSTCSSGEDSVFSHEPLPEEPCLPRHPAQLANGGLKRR

Compound: C[C@@H](c1ccccc1)n1nnc2cnc3ccc(-c4cnc5[nH]ccc5c4)cc3c21
- Activity [1]: 110%
- Activity [2]: 93%
- Activity [3]: 79%
- Activity [4]: 89%
- Activity [5]: 64%
- Activity [6]: 22%
- Activity [7]: 8%
- Activity [8]: 93%
- Activity [9]: 62%
- Activity [10]: 4%
- Activity [11]: 79%
- Activity [12]: 69%
- Activity [13]: 71%
- Activity [14]: 53%
- Activity [15]: 76%
- Activity [16]: 91%
- Activity [17]: 18%
- Activity [18]: 90%
- Activity [19]: 8%
